# Legend:
# [1] = system: angiotensin I converting enzyme; assay: inhibition of pressor response following angiotensin I challenge in the dog; assay type: in vivo; conditions: oral dose of 10 mg/Kg
# [2] = system: angiotensin I converting enzyme; assay: inhibition of pressor response following angiotensin I challenge in normotensive rats; assay type: in vivo; conditions: rat
# Method: The inhibition of said enzyme prevents the generation of angiotensin II from I and, therefore, attenuates any pressure response following an angiotensin I challenge.
# The corresponding in vivo test is performed with male, normotensive rats, which are anesthetized with 100-120 mg/kg i.p. of sodium ethyl-(1-methylpropyl)malonylthiourea. A femoral artery and saphenous vein are cannulated for direct blood pressure measurement and i.v. administration of angiotensin I and compounds of this invention. After the basal blood pressure is stabilized, pressor responses to 3 challenges of 0.33 μg/kg of angiotensin I i.v., in 5 minute intervals, are obtained. Such pressure responses are again obtained 5, 10, 15, 30 and 60 minutes after either i.v., or p.o. administration (stomach tube) of the compounds to be tested, and compared with the initial responses.
# [3] = system: spontaneous hypertensive rat; assay: blood pressure and heart rate in the spontaneous hypertensive rat; assay type: in vivo
# Method: The in vivo lowering effect on the blood pressure is recorded either directly by means of a catheter, for example placed in the dog's femoral artery, or indirectly by sphygmomanometry at the rat's tail, and a transducer, expressing the blood pressure prior and after dosing in mm Hg. Thus, for example, representative members of the compounds of this invention, illustrated by the Examples herein, are very effective in hypertensive rats and dogs at p.o.-doses as low or lower than 50 mg/kg/day.
# [4] = target: T1, angiotensin-converting enzyme (Oryctolagus cuniculus, UniProt P12822); assay: in vitro inhibition of the angiotensin-converting enzyme; assay type: biochemical, rabbit; conditions: hippuryl-histidyl-leucine substrate, 37°, 30 minutes; enzyme from lungs of adult male rabbits
# T1 construct: freshly prepared from lungs of adult male rabbits; from tissue; host or cells: lungs of adult male rabbits
# T1 sequence (P12822 34-1310): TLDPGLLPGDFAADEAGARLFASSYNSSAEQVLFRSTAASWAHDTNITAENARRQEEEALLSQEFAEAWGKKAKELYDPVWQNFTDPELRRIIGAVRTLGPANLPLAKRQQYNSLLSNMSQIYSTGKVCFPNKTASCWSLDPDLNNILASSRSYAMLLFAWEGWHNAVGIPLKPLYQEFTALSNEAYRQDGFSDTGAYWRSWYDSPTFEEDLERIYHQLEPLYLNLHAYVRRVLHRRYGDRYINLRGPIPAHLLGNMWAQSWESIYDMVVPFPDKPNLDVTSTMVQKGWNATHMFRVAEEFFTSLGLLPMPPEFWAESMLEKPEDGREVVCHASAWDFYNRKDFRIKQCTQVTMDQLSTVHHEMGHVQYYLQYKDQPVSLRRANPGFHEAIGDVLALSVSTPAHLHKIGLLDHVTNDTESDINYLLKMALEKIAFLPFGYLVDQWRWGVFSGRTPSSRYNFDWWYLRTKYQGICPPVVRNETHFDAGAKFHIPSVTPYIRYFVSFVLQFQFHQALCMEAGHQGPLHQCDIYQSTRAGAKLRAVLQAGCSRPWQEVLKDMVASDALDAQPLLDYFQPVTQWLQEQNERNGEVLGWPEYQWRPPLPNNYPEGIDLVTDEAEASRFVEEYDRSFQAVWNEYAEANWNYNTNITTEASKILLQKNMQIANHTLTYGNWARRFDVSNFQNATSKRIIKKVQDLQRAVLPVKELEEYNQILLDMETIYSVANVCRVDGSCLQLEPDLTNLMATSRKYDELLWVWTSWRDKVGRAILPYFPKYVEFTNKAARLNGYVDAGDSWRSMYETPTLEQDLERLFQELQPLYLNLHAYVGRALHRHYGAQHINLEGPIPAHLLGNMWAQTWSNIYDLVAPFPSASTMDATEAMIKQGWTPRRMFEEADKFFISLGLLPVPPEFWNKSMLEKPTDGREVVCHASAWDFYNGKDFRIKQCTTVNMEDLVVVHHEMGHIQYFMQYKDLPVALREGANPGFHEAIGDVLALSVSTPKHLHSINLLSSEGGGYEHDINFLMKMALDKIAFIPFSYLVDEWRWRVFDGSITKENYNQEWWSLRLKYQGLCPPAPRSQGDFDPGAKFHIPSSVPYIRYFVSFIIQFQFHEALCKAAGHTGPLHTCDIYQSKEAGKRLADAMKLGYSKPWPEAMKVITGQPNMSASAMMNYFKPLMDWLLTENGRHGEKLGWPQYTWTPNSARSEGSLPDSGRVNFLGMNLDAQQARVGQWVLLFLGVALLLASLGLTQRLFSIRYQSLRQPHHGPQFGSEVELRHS
# Method: Biophys. Acta 293, 451 (1973). According to this method said compounds are dissolved at about 1 mM concentrations in phosphate buffer, externally cooled with ice. […] Said solutions are incubated at 37° for 30 minutes and combined with 0.75 ml of 0.6 N aqueous sodium hydroxide to stop further reaction. Then 100 μl of o-phthalaldehyde are added at room temperature, and 10 minutes later 100 μl of 6N hydrochloric acid. These samples are read against water in a spectrophotometer set at 360 nm, and the optical densities thereof estimated. They are corrected for the standard curve via a conversion factor expressing nanomoles of histidyl-leucine formed during said 30 minute incubation period. The results are plotted against drug concentration to determine the IC50, i.e., the drug concentration which gives half the activity of the control sample containing no drug.
structure (smiles),measurement,setting,value
"C[C@H](C[C@@H](C)C(=O)N1c2ccccc2C[C@H]1C(=O)O)C(=O)OCC(=O)OC1CC2CCC1(C)C2(C)C (stereo partly drawn) [1-4-(l-bornyloxycarbonylmethoxycarbonyl)-2R,4R-dimethylbutanoyl-indoline-2S-carboxylic acid]",inhibition of the pressor response following angiotensin I challenge,[1],inhibit the pressor response
"CCOC(=O)[C@H](C)C[C@@H](C)C(=O)N1c2ccccc2C[C@H]1C(=O)O [1-(4-carboethoxy-2R,4R-dimethylbutanoyl)-indoline-2S-carboxylic acid]",inhibition of the pressor response following angiotensin I challenge,[2]; dose as low as 0.3 mg/Kg i.v.,about 50%
same,inhibition of the pressor response following angiotensin I challenge,[2]; dose as low as 4 mg/Kg p.o.,about 50%
same,decrease of heart rate,[3]; 30 mg/Kg p.o.,decrease heart rate
same,lowering of blood pressure,[3]; 30 mg/Kg p.o.,significantly lower blood pressure
CCOC(=O)[C@H](CCc1ccccc1)C[C@@H](C)C(=O)N1c2ccccc2C[C@H]1C(=O)O [1-(4-carboethoxy-2R-methyl-4R-phenethylbutanoyl)indoline-2S-carboxylic acid],decrease of heart rate,[3]; 10 mg/Kg p.o.,decrease heart rate
same,lowering of blood pressure,[3]; 10 mg/Kg p.o.,significantly lower blood pressure
"C[C@H](C[C@@H](C)C(=O)N1c2ccccc2C[C@H]1C(=O)O)C(=O)O [1-(4-carboxy-2R,4R-dimethylbutanoyl)-indoline-2S-carboxylic acid]",IC50,[4],~30 nM
C[C@H](C[C@@H](CCc1ccccc1)C(=O)O)C(=O)N1c2ccccc2C[C@H]1C(=O)O [1-(4-carboxy-2R-methyl-4R-phenethylbutanoyl)indoline-2S-carboxylic acid],IC50,[4],~5 nM
C[C@H](CCC(=O)O)C(=O)N1c2ccccc2C[C@H]1C(=O)O [1-(4-carboxy-2R-methylbutanoyl)-indoline-2S-carboxylic acid],IC50,[4],~40 nM
O=C(O)CCCC(=O)N1c2ccccc2C[C@H]1C(=O)O [1-(4-carboxybutanoyl)-indoline-2S-carboxylic acid],IC50,[4],~300 nM
"C[C@H](C[C@@H](C)C(=O)N1c2ccccc2C[C@H]1C(=O)O)C(=O)OCOC(=O)C(C)(C)C [1-[4-(pivaloyloxymethoxycarbonyl)-2R,4R-dimethylbutanoyl]-indoline-2S-carboxylic acid]",inhibition of the pressor response following angiotensin I challenge,[1],inhibit the pressor response

# Source: patent US4479963A, “1-Carboxyalkanoylindoline-2-carboxylic acids” (Ciba-Geigy Corporation, priority 1982, dated 1984)
